From patent US8785598B2, “Coenzyme Q10 nanoparticles, preparation method thereof and composition containing said nanoparticles” (Korea Research Institute of Bioscience and Biotechnology, priority 2009, dated 2014)

Assay: Confirmation of solubilization of coenzyme Q10 nanoparticle (visual, FIG. 9)
Assay type: physicochemical
Conditions: dispersed in water
Source text: FIG. 9 illustrates images of (1) coenzyme Q10 powder, (2) an aqueous solution separated into a supernatant layer when coenzyme Q10 is dispersed in water and (3) an aqueous solution of a coenzyme Q10 nanoparticle of Example 7 of the present invention.
As a result, a semi-transparent yellow aqueous solution was formed.

Q: With `COC1=C(OC)C(=O)C(C/C=C(\C)CC/C=C(\C)CC/C=C(\C)CC/C=C(\C)CC/C=C(\C)CC/C=C(\C)CC/C=C(\C)CC/C=C(\C)CC/C=C(\C)CCC=C(C)C)=C(C)C1=O` [coenzyme Q10] as the compound, how does the “solubility in water / appearance of aqueous solution” value read?
A: not soluble in water
